For orientation: IC50 means the point on the concentration scale where inhibition reaches its midpoint.

Chain of phosphorylated active hERK2 enzyme (P28482 whole entry): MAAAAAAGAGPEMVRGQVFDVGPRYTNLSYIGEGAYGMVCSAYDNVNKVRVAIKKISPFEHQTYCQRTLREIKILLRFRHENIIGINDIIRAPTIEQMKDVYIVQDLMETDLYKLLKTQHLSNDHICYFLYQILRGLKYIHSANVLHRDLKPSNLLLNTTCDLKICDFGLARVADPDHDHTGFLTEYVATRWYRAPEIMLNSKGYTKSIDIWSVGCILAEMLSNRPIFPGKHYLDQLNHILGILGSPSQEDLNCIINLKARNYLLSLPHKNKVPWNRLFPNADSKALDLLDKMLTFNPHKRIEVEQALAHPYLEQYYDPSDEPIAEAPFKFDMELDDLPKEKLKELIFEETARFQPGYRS

The assay addresses phosphorylated active hERK2 enzyme (Homo sapiens (Human), UniProt P28482). Kind of assay: Active Human ERK2 (hERK2) Activity Assay (IMAP-FP). The class given is biochemical. The conditions noted are these: Table 6, 0.5 nM hERK2, 30 μM ATP, 10 point titration, read-out: AERK2 IC50. In a few lines:
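IMAP detection beads in buffer with 24 mM NaCl stopped the reaction, and fluorescence polarization was read after 60 min binding.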
As to `C[C@@H](NC(=O)Nc1cc2[nH]nc(N3CC4C5CCC(C)(O5)C4C3)c2cn1)c1ccc(F)cc1` (stereo partly drawn) [Example 376, 1-[(1R)-1-(4-fluorophenyl)ethyl]-3-[3-(4-methyl-octahydro-2H-4,7-epoxyisoindol-2-yl)-1H-pyrazolo[4,3-c]-pyridin-6-yl]urea], the IC50 is 13.8 nM. For `C[C@@H](NC(=O)Nc1cc2[nH]nc(NC(C)(C)C)c2cn1)c1ccccc1` [Example 351, 1-[3-(tert-butylamino)-1H-pyrazolo[4,3-c]-pyridin-6-yl]-3-[(1R)-1-phenylethyl]urea] the value was 88 nM.

Turning to `COC(=O)Nc1n[nH]c2cc(NC(=O)N[C@H](C)c3cccc(Cl)c3)ncc12` [Example 287, methyl [6-({[(1R)-1-(3-chlorophenyl)-ethyl]carbamoyl}-amino)-1H-pyrazolo[4,3-c]-pyridin-3-yl}-carbamate], the IC50 came to 1 nM. As for `C[C@@H](NC(=O)Nc1cc2[nH]nc(NC(=O)N3C[C@H]4COC[C@H]4C3)c2cn1)c1ccc(F)cc1` [Example 458, (3aR,6aS)-N-(6-(3-((R)-1-(4-fluorophenyl)ethyl)ureido)-1H-pyrazolo[4,3-c]pyridin-3-yl)tetrahydro-1H-furo[3,4-c]pyrrole-5(3H)-carboxamide], the figure is 14.3 nM; as for `COC(=O)Nc1n[nH]c2cc(NC(=O)N[C@H](C)c3ccccc3)ncc12` [Example 220, (R)-methyl (6-(3-(1-phenylethyl)ureido)-1H-pyrazolo[4,3-c]pyridin-3-yl)carbamate], 354 nM. For `CCNc1n[nH]c2cc(NC(=O)N[C@H](COC)c3ccccc3)nc(C)c12` [Example 334, 1-[3-(ethylamino)-4-methyl-1H-pyrazolo[4,3-c]-pyridin-6-yl]-3-[(1S)-2-methoxy-1-phenylethyl]urea], the IC50 came to 2.9 nM. Take `COC(=O)Nc1n[nH]c2cc(NC(=O)N[C@H](C)c3ccc(F)cc3)ncc12` [Example 321, (R)-methyl (6-(3-(1-(4-fluorophenyl)ethyl)ureido)-1H-pyrazolo[4,3-c]pyridin-3-yl)carbamate]: the IC50 was 2.6 nM. As for `COC[C@@H](NC(=O)Nc1cc2[nH]nc(NC(C)C(F)(F)F)c2cn1)c1ccccc1` (stereo partly drawn) [Example 422, 1-[(1S)-2-methoxy-1-phenylethyl]-3-{3-[(2,2,2-trifluoro-1-methylethyl)-amino]-1H-pyrazolo[4,3-c]-pyridin-6-yl}urea], the figure is 0.8 nM.

With `C[C@@H](NC(=O)Nc1cc2[nH]nc(NCc3cccnc3)c2cn1)c1ccccc1` [Example 316, (R)-1-(1-phenylethyl)-3-(3-((pyridin-3-ylmethyl)amino)-1H-pyrazolo[4,3-c]pyridin-6-yl)urea], the IC50 is 0.7 nM. Regarding `Cc1cc([C@@H](C)NC(=O)Nc2cc3[nH]nc(N)c3cn2)ccc1Cl` [Example 276, 1-(3-amino-1H-pyrazolo[4,3-c]pyridin-6-yl)-3-[(1R)-1-(4-chloro-3-methylphenyl)-ethyl]urea], the IC50 amounted to 2.3 nM. As for `CC(C)(O)[C@@H](NC(=O)Nc1cc2[nH]nc(NC(=O)N3CCC(F)(F)CC3)c2cn1)c1ccc(F)cc1` [Example 132, 4,4-difluoro-N-[6-({[(1S)-1-(4-fluorophenyl)-2-hydroxy-2-methylpropyl]-carbamoyl}amino)-1H-pyrazolo[4,3-c]pyridin-3-yl]-piperidine-1-carboxamide], the figure is 4.9 nM; as for `CCNc1n[nH]c2cc(NC(=O)NCc3cccnc3N(C)C)ncc12` [Example 250, 1-{[2-(dimethyl-amino)pyridin-3-yl]methyl}-3-[3-(ethylamino)-1H-pyrazolo[4,3-c]-pyridin-6-yl]urea], 32 nM; as for `CC(C)CC(=O)Nc1n[nH]c2cc(NC(=O)N[C@H](C)c3ccccc3)ncc12` [Example 209, 3-methyl-N-[6-({[(1R)-1-phenylethyl]-carbamoyl}amino)-1H-pyrazolo[4,3-c]pyridin-3-yl]-butanamide], 1.6 nM.

Source of the values: US9233979B2, “Compounds that are ERK inhibitors” (Merck Sharp & Dohme Corp., priority 2012, dated 2016).
